Where a name gives a salt, the structure may show the parent alone.
Legend:
Assay type in all cases: physicochemical
[1] = Solubility of active ingredient salts in water
[2] = Compatibility with polyethylene glycol used in the film coating; conditions: at high active ingredient concentrations
[3] = Stability with respect to uptake or release of water under varying atmospheric humidity; conditions: varying conditions of atmospheric humidity; compared with compound of the formula (II)
[4] = Effect of light on active ingredient (I) or tablet cores; conditions: active ingredient (I) or the tablet cores

Row | Compound | Solubility in water at 25° C. [1] [mg/100 mL] | Compatibility with polyethylene glycol used in the film coating [2] | solubility ([1]; 25° C.) [mg/mL] | Stability with respect to uptake or release of water [3] | Effect of light [4]
1 | [Al+3].[O-]c1c(-n2ccnn2)cnn1-c1cc(N2CCOCC2)ncn1.[O-]c1c(-n2ccnn2)cnn1-c1cc(N2CCOCC2)ncn1.[O-]c1c(-n2ccnn2)cnn1-c1cc(N2CCOCC2)ncn1 [Aluminium salt] | 6 | – | – | – | –
2 | Oc1c(-n2ccnn2)cnn1-c1cc(N2CCOCC2)ncn1 [Sodium salt (active ingredient (I)), sodium 1-[6-(morpholin-4-yl)pyrimidin-4-yl]-4-(1H-1,2,3-triazol-1-yl)-1H-pyrazol-5-olate] | – | physical incompatibility with polyethylene glycol | 26.2 | significantly higher stability with respect to uptake or release of water | brown discolouration

Source: US9827198B2, “Pharmaceutical dosage forms comprising sodium-1-[6-(morpholin-4-yl)pyrimidin-4-yl]-4-(1H-1,2,3-triazol-1-yl)-1H-pyrazol-5-olate” (Bayer Pharma Aktiengesellschaft, priority 2013, dated 2017)
